Experimental data taken from PMC8538351 (Pharmaceuticals, 2021).
Like-named read-outs stand apart in the source and are kept apart here.

Key:
SARS-CoV-2 [1] = assay: Antiviral activity by immunofluorescence microscopy in Vero E6 cells; type: cell-based; details: for EC50: Severe acute respiratory syndrome coronavirus 2, Vero C1008, 48 h
Experimental: (§1) Vero E6, A549-ACE2 or Calu3 were seeded onto 96-well plates as described above and infected in the presence of the indicated compound dose (MOI = 0.01). Twenty-four hours post infection (48 h for Calu3 cells), cells were fixed for 20 min at room temperature with a 4% formaldehyde solution in PBS, washed twice with PBS and incubated with incubation buffer (3% BSA; 0.3% Triton X100 in PBS) for 1 h. A monoclonal antibody against the N protein was diluted in the incubation buffer (1:2000, v/v; Genetex HL344) and incubated with the cells for 1 h; after this time, cells were washed with PBS and subsequently incubated with a 1:500 (v/v) dilution of a goat anti-rabbit conjugated to Alexa 488 (Invitrogen-Carlsbad, Carlsbad, CA, USA). Nuclei were stained with DAPI (Life Technologies, Budapest, Hungary) as recommended by the manufacturer during the secondary antibody incubation. Cells were washed with PBS and imaged using an automated multimode reader Spark Cyto (TECAN-Grödig, Austria).
(§2) All the infection experiments were performed by mixing the virus and compound dilutions 1:1 (v/v) before addition to the target cells. In the time-of-addition experiments, Vero E6 cultures were inoculated (MOI from 0.5–1) for 1 h in the presence or absence of the compounds at 37 °C. Subsequently, virus-compound mixtures were left at all times, or removed and replaced with fresh 2% FBS complete media containing or not the tested compounds (see experimental scheme in Figure 7 for details). Cells were fixed 6 h post-inoculation.
(§3) Descriptive statistics were calculated using Microsoft Excel. One-way ANOVA and post hoc tests were calculated using IBM SPSS Software Package (version 26). EC50 and EC90 values were obtained employing the PROBIT regression method using IBM SPSS vs26, except for values in Table 1 that were calculated by graphic interpolation of individual curves.

SARS-CoV-2 [2] = assay: Antiviral activity by immunofluorescence microscopy in A549-ACE2 cells; type: cell-based; details: A549-ACE2, MOI 0.01, 48 h; for EC50: Severe acute respiratory syndrome coronavirus 2, A549-ACE2, 48 h
Experimental: as §1, §2, §3

SARS-CoV-2 [3] = assay: Antiviral activity by immunofluorescence microscopy in Calu3 cells; type: cell-based; details: Calu3, MOI 0.005, 48 h; for EC50: Severe acute respiratory syndrome coronavirus 2, Calu-3, 48 h
Experimental: as §1, §2, §3

SARS-CoV-2 [4] = assay: Cytopathic effect protection assay (crystal violet) in Vero E6 cells; type: cell-based; details: Vero E6, 72 h
Experimental: In order to explore for the presence of anti-SARS-CoV-2 metabolites in M. polymorpha, we prepared crude extracts of two different M. polymorpha subspecies (subsp. ruderalis from Japan and subsp. polymorpha, from Spain). The anti-SARS-CoV-2 activity of the resulting crude extracts was tested in Vero E6 cell monolayers infected with the SARS-CoV-2 NL2020 strain (Figure 1A). Infection was carried out at a multiplicity of infection (MOI) of 0.001 for 72 h. In the absence of antiviral activity, SARS-CoV-2 infection triggers cell death of Vero E6 cells and results in loss of cell biomass in the well, which is readily visualized as a strong reduction in crystal violet staining (DMSO, Figure 1A). […] Thus, protective activity may be used as a rapid qualitative surrogate assay to facilitate identification of substances with antiviral potential.
Vero E6 or Huh7-ACE2 cell monolayers were inoculated (MOI = 0.001) in the presence of a wide range of two-fold dilutions of the crude, or partially purified extracts, or pure compounds and incubated for 72 h. Cytopathic effect and lack thereof was visualized by crystal violet staining, as previously described. Untreated and solvent-treated cells were included in each plate as controls. […] A minimum virus dose (10 infectious units/well; MOI 0.001 in 1e4 cells/well) capable of producing overt cytopathic effect was used. […]

SARS-CoV-2 [5] = assay: Cytopathic effect protection assay (crystal violet) in Huh7-ACE2 cells; type: cell-based; details: Huh7-ACE2, 72 h
Experimental: To confirm the antiviral potential of PheoA, a commercially available PheoA stock solution was serially diluted and mixed with a virus stock to inoculate Vero E6 and Huh7-ACE2 cells (human hepatoma cells expressing ACE2). Cells were fixed 72 h post-inoculation and stained with crystal violet to visualize the integrity of the cell monolayer.
Vero E6 or Huh7-ACE2 cell monolayers were inoculated (MOI = 0.001) in the presence of a wide range of two-fold dilutions of the crude, or partially purified extracts, or pure compounds and incubated for 72 h. Cytopathic effect and lack thereof was visualized by crystal violet staining, as previously described. Untreated and solvent-treated cells were included in each plate as controls. […] A minimum virus dose (10 infectious units/well; MOI 0.001 in 1e4 cells/well) capable of producing overt cytopathic effect was used. Lower virus doses produce visible plaques and complete absence of CPE coincides with the expected endpoint dilution, around 8-fold lower dilutions.

SARS-CoV-2 [6] = assay: Antiviral activity by immunofluorescence microscopy, summary for Vero E6, A549-ACE2 and Calu3; type: cell-based; details: Severe acute respiratory syndrome coronavirus 2, all tested cell lines
Experimental: (§4) PheoA antiviral activity was further confirmed by immunofluorescence microscopy–to estimate virus propagation–and an MTT assay–to evaluate compound cytotoxicity. […] This dataset was used to determine effective concentrations (EC50 and EC90) and cytotoxicity indexes. The estimated EC50 and EC90 values were around 50 nM and 100 nM, respectively, with a wide therapeutic window in all tested cell lines (Table 1)
as §1

[7] = Cytotoxicity by MTT assay in Vero E6 cells; type: cell-based, Green Monkey; details: green monkey, Vero E6 cells; Vero-E6, MTT, 48 h
Experimental: (§5) Cell monolayers were seeded in 96-well plates. The day after cells were treated with a wide range of compound concentrations and forty-eight hours later they were subjected to an MTT assays using standard procedures. The CC50 values were graphically interpolated from dose–response curves obtained with three biological replicates.

[8] = Cytotoxicity by MTT assay in A549-ACE2 cells; type: cell-based; details: human
Experimental: as §5

[9] = Cytotoxicity by MTT assay in Calu3 cells; type: cell-based; details: human
Experimental: as §5

[10] = test system: Vero E6, A549-ACE2 and Calu3 cells; assay: Cytotoxicity by MTT assay, summary for Vero E6, A549-ACE2 and Calu3; type: cell-based; details: all three models, assayed doses
Experimental: as §4, §5

SARS-CoV-2 [11] = assay: Extracellular viral RNA load by RT-qPCR in A549-ACE2 cells; type: cell-based; details: A549-ACE2, 48 h
HCV = assay: microbe, parasite or virus in culture; type: cell-based; details: Hepatitis C virus, Huh-7, 48 h
hCoV-229E = assay: microbe, parasite or virus in culture; type: cell-based; details: Human coronavirus 229E, Huh-7, 48 h
West Nile Virus = assay: microbe, parasite or virus in culture; type: cell-based; details: Huh-7, 48 h
[12] = test system: vesicular stomatitis virus (VSV-GFP); assay: microbe, parasite or virus in culture; type: cell-based; details: Huh-7
[13] = test system: vesicular stomatitis virus (VSV-GFP); assay: microbe, parasite or virus in culture; type: cell-based; details: A549-ACE2
SARS-CoV-2 [14] = assay: Combination treatment of PheoA with RMDV in Vero E6 cells, immunofluorescence microscopy; type: cell-based; details: Severe acute respiratory syndrome coronavirus 2, Vero C1008, 24 h, read-out: EC50 of individual treatment
Experimental: Thus, combination treatments were performed with increasing doses of PheoA and RMDV. Drugs were mixed in different proportions, combined with infectious SARS-CoV-2 (MOI = 0.01) and the mixtures were used to inoculate Vero E6 cells. Twenty-four hours later, cells were fixed and processed to determine the infection efficiency as using immunofluorescence microscopy. […] Increasing concentrations of PheoA improved RMDV efficacy and viceversa.
Synergy analysis was carried out in the web-based platform Synergy Finder (https://synergyfinder.fimm.fi/, accessed on 25 September 2021).

SARS-CoV-2 [15] = assay: Time-of-addition experiment in Vero E6 cells (single-cycle infection); type: cell-based; details: for efficacy when added during the virus entry phase (in words): versus maintained at all times
Experimental: Next, antiviral efficacy of PheoA was compared when PheoA was (i) present at all times, (ii) added only during virus inoculation, or (iii) added only after virions had effectively penetrated the cells in single-cycle infection experiments ([…]).
as §2

[16] = test system: retroviral vectors pseudotyped with SARS-CoV-2 Spike protein (SARS2pp); type: cell-based
[17] = test system: retroviral vectors pseudotyped with VSV glycoprotein (VSVpp); type: cell-based
SARS-CoV-2 virions = assay: Virucidal assay: pre-incubation of virions, residual infectivity titer by TCID50; type: cell-based; details: for virus infectivity after pre-incubation (in words): 340 nM
Huh7 cells = details: Huh7, 48 h
SARS-CoV-2 [18] = assay: Viral RNA load by RT-qPCR in Vero E6 cells; type: cell-based; details: 25 µM, Vero E6, MOI 0.001, 72 h post infection
SARS-CoV-2 [19] = details: monolayers protected down to this concentration; read-out: reported EC50; cited from earlier work
Vero E6 cells = assay: Cytotoxicity by MTT assay in Vero E6 cells; type: cell-based, Green Monkey; details: Vero E6, MTT, parallel cultures
Experimental: as §5

[20] = Vero E6, MOI 0.005, 48 h, PROBIT regression
[21] = mean ± SD n = 3, graphic interpolation

## C=Cc1c(C)c2cc3nc(c4c5[nH]c(cc6nc(cc1[nH]2)C(C)=C6CC)c(C)c5C(=O)[C@@H]4C(=O)OC)[C@@H](CCC(=O)O)[C@@H]3C [Semi-synthetic PheoA, Pheophorbide a]
SARS-CoV-2 [1]; [20]
  EC50: 51 nM
SARS-CoV-2 [2]; PROBIT regression
  EC50: 74 nM
SARS-CoV-2 [3]; PROBIT regression
  EC50: 38 nM

## C=Cc1c(C)c2cc3nc(c4c5[nH]c(cc6nc(cc1[nH]2)C(C)=C6CC)c(C)c5C(=O)[C@@H]4C(=O)OC)[C@@H](CCC(=O)O)[C@@H]3C [PheoA, Pheophorbide a]
SARS-CoV-2 [4]
  concentration with consistent protective capacity: above 65 nM
SARS-CoV-2 [5]
  concentration with consistent protective capacity: above 65 nM
SARS-CoV-2 [1]; Vero-E6, MOI 0.005, 48 h, mean ± SD n = 3, graphic interpolation
  EC50: 54 ± 13 nM
SARS-CoV-2 [1]; Severe acute respiratory syndrome coronavirus 2, Vero C1008, Vero-E6, MOI 0.005, 48 h, mean ± SD n = 3
  EC90: 106 ± 16 nM
SARS-CoV-2 [2]; [21]
  EC50: 62 ± 25 nM
SARS-CoV-2 [2]; Severe acute respiratory syndrome coronavirus 2, mean ± SD n = 3
  EC90: 201 ± 84 nM
SARS-CoV-2 [3]; [21]
  EC50: 35 ± 20 nM
SARS-CoV-2 [3]; Severe acute respiratory syndrome coronavirus 2, Calu-3, mean ± SD n = 3
  EC90: 98 ± 8 nM
SARS-CoV-2 [6]; read-out: estimated EC50
  EC50: ~50 nM
SARS-CoV-2 [6]; read-out: estimated EC90
  EC90: ~100 nM
[7]
  CC50 at 48 h: > 8420 nM
[8]
  CC50 at 48 h: 2600 ± 500 nM
[9]
  CC50 at 48 h: > 8420 nM
[10]
  cytotoxicity (in words): no cytotoxicity was observed
SARS-CoV-2 [11]; increasing concentrations
  viral RNA accumulation (in words): reduced viral RNA accumulation in a dose-dependent manner
HCV
  EC50: 300 nM
hCoV-229E
  EC50: 128 nM
West Nile Virus
  EC50: 64 nM
[12]
  EC50: 506 nM
[13]
  EC50: 578 nM
SARS-CoV-2 [14]
  EC50: 40 nM
SARS-CoV-2 [15]; Vero E6, MOI 5, 6 h
  antiviral activity when maintained at all times (in words): expected antiviral activity
  efficacy when added during the virus entry phase (in words): nearly identical
SARS-CoV-2 [15]; Vero E6, MOI 5, fixed 6 h post-inoculation
  efficacy when added after virion internalization: ca. 6 % of the maximum efficacy
[16]; maximum dose 675 nM, 48 h
  maximum reduction of infection efficiency: ≤ 40%
[17]
  maximum reduction of infection efficiency: ≤ 40%
SARS-CoV-2 virions; 30 min
  virus infectivity after pre-incubation (in words): reduced partially
SARS-CoV-2 virions; 60 min
  virus infectivity after pre-incubation (in words): below detection limits
SARS-CoV-2 virions; up to 15 min, room temperature
  virus infectivity after pre-incubation (in words): did not have any significant impact on virus infectivity
SARS-CoV-2 virions; 30 min pre-incubation, 10^5 TCID50/mL, room temperature
  dose giving statistically significant reduction in remaining virus infectivity: above 67 nM
Huh7 cells
  cytotoxicity (in words): no cytotoxicity was observed

## CCC(CC)COC(=O)[C@H](C)N[P@](=O)(OC[C@H]1O[C@@](C#N)(c2ccc3c(N)ncnn23)[C@H](O)[C@@H]1O)Oc1ccccc1 [RMDV, Remdesivir]
SARS-CoV-2 [18]
  viral RNA load: undetectable
SARS-CoV-2 [11]; 5 µM
  reduction of extracellular viral RNA: two orders of magnitude
SARS-CoV-2 [14]
  EC50: 2000 nM
SARS-CoV-2 [15]; Vero E6, MOI 5, 6 h
  antiviral activity when maintained at all times (in words): highly effective at reducing infection efficiency
SARS-CoV-2 [19]
  EC50: 1500 nM

## C=Cc1c(C)c2cc3nc(c4c5[nH]c(cc6nc(cc1[nH]2)C(C)=C6CC)c(C)c5C(=O)C4)[C@@H](CCC(=O)O)[C@@H]3C [pPheoA, pyropheophorbide a]
SARS-CoV-2 [1]; [20]
  EC50: 185 nM
Vero E6 cells
  cytotoxicity (in words): absence of measurable cytotoxicity

## Cc1ccc(NC(=O)c2ccc(CN3CCN(C)CC3)cc2)cc1Nc1nccc(-c2cccnc2)n1 [imatinib, Imatinib]
SARS-CoV-2 [15]; 15 µM, Vero E6, MOI 5, 6 h
  efficacy when added after virion internalization (in words): greatly lost efficacy
SARS-CoV-2 [15]; Vero E6, MOI 5, 6 h
  antiviral activity when maintained at all times (in words): expected antiviral activity
  efficacy when added during the virus entry phase (in words): comparable efficacy
[16]; 15 µM
  entry inhibition (in words): selectively inhibited SARS2pp
[17]; 15 µM
  entry inhibition (in words): not VSVpp entry
